Experimental data taken from patent US5137897A, “2-substituted 4-(3-alkyl-5-tert.-butyl-4-hydroxyphenyl) thiazoles, processes for their preparation, pharmaceuticals containing them and their use” (Hoechst Aktiengesllschaft, priority 1989, dated 1992).
Like-named read-outs stand apart in the source and are kept apart here.

Tests used:
[1] = Free radical scavenger properties (reaction with DPPH); settings: reaction with DPPH at 20° C.; determined graphically
Procedure: a) Free radical scavenger properties The testing in this test, which allows conclusions on the antioxidative potential of a substance, was carried out according to Smith et al., Biochem, Pharmacol. 1987. 36, 1456. In this test, the reaction of the compounds according to the invention with the stable free radical 1,1-diphenyl-2-picrylhydrazyl (DPPH) is monitored optically at 20° C. The rate constant K and reaction orders n in Table 5 were determined graphically in the customary manner.

[2] = system: TXB2 formation in mast cell cultures; experiment: Influence on formation of TXB2 in mast cell cultures (rat); assay type: cell-based; settings: read-out: TXB2, Residual activity (%)
Procedure: (§1) Moreover, the substances according to the invention were also characterized in cellular leukocyte systems in vitro as inhibitors of arachidonic acid metabolites. To detect the lipoxygenase metabolites, human neutrophils stimlated by calcium ionophore A 23 187 (70 mcmol/1) were incubated with ^14 C-arachidonic acid (81 mcmol/1) and the principal metabolites formed after 15 minutes at 37° C., such as 5-hydroxyeicosatetraenoic acid (5-HETE) and the more strongly proinflammatory leukotriene B4 (LTB4) were determined quantitatively (Tab. 6) with the aid of a radio monitor after separation by HPLC. The influence on the proinflammatory arachiconic acid metabolites thromboxane and LTB4 in cultures prepared from rat mast cells was determined in a corresponding manner (Tab. 7).

[3] = system: Adjuvant arthritis (Perper modification; paw volume) in rats; experiment: Adjuvant arthritis (Perper modification), paw volume on the 21st day; assay type: in vivo, rat (male, Wistar-Lewis strain); settings: Rattus norvegicus, po, 504 h, 1st to 12th day; for inhibition in vivo at 2.5 mg/kg: 2.5 mg/kg/day; for inhibition in vivo at 5 mg/kg: 5 mg/kg/day
[4] = system: LTB4 formation in mast cell cultures; experiment: Influence on formation of LTB4 in mast cell cultures (rat); assay type: cell-based; settings: read-out: LTB4, Residual activity (%)
Procedure: as §1

[5] = system: Adjuvant arthritis (paw volume increase) in rats; experiment: Adjuvant arthritis (method of Pearson), antiinflammatory action on the 5th day; assay type: in vivo, rat (male, Wistar-Lewis strain); settings: Rattus norvegicus, 120 h; for ED50: adjuvant arthritis, oral, determined graphically from dose-response curve; for inhibition in vivo at 50 mg/kg: po, 50 mg/kg p.o. once daily, 1st to 5th day, vs untreated control, read-out: Adjuvant arthritis (% inhibition at 50 mg/kg orally)
Procedure: The testing of the compounds of the formula I according to the invention for antiinflammatory action, influence on immunopathological processes, oxygen free radicaldeactivating properties and influence on arachidonic acid metabolism was carried out in the animal models and bioassays described in the following.
1. Adjuvant arthritis for influencing the antiinflammatory action (Table 2)
(§2) The investigations were carried out by the method of Pearson (Arthrit. Rheum. 1959, 2, 44). Male rats of a Wistar-Lewis strain having a body weight between 130 and 200 g were used as experimental animals. The compounds to be tested were administered orally (p. o.) once daily from the 1st to the 5th experimental day in doses of 50 mg per kg of body weight. The animals of one control group received only the vehicle. Each preparation group and the control group comprised 8 animals. The percentage reduction of the paw volume increase compared to that of the untreated control group was used as the criterion of action. The ED50 values were determined graphically from the dose-response curve.
(§3) 4-(3,5-Di-tert.-butyl-4-hydroxyphenyl)-2-methylthiazole i.e. the compound of the formula [drawing 26] according to US-A-4,535,165 mentioned at the beginning, was additionally included in this and the investigation below as a comparison preparation.

[6] = system: 5-HETE formation in human neutrophils; experiment: Influence on 5-HETE formation in human neutrophils; assay type: cell-based; settings: Neutrophil
Procedure: as §1

[7] = system: LTB4 formation in human neutrophils; experiment: Influence on LTB4 formation in human neutrophils; assay type: cell-based; settings: Neutrophil
Procedure: as §1

cyclooxygenase = biological target: T1, cyclooxygenase (Ovis aries, UniProt P05979); experiment: Cyclooxygenase (microsomes) inhibition in vitro; assay type: biochemical, sheep
T1 construct: microsomal cyclooxygenase system (fraction from sheep seminal vesicles, Paesel, Frankfurt, Germany); purchased Paesel, Frankfurt, Germany; host or cells: sheep seminal vesicles (microsomal fraction)
T1 sequence (P05979 25-600): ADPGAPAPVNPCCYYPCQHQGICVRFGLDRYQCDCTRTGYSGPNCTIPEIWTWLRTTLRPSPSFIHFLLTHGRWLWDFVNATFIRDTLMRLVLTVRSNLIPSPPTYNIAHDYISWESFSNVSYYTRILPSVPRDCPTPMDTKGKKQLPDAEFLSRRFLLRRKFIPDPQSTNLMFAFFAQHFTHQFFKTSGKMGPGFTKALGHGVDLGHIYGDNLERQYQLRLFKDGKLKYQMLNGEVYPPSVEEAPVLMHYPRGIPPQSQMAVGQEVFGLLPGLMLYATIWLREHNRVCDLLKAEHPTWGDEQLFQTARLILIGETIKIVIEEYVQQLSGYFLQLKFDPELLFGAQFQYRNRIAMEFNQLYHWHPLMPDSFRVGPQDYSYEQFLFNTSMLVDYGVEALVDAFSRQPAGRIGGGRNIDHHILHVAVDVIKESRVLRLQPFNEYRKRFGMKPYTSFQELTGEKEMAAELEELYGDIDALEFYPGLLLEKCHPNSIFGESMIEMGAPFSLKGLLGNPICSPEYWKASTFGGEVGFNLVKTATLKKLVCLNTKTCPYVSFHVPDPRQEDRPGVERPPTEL
Procedure: (§4) The inhibitory action of the compounds according to the invention is measured on the in vitro arachidonic acid degradation catalyzed by cyclooxycenase and lipoxycenase with the aid of the test systems described in Weithmann and Alpermann, Arzneim.-Forsch. 1985, 35, 947: The cyclooxygenase-catalyzed synthesis of prostaglandins from arachidonic acid is measured in the microsomal cyclooxygenase system (fraction from sheep seminal vesicles, Paesel, Frankfurt, Germany). The coenzyme is adrenaline, whose conversion to adrenochrome is monitored by spectrophotometry at 492 nm. Cis-9-cis-12-linoleic acid is incubated with lipoxygenase (L7127, Sigma, Deisenhofen, Germany) in the lipoxygenase system in vitro and the formation of conjugated double bonds taking place during the oxygenation reaction is monitored optically at 234 nm.
The inhibitor actions, or the inhibitor concentrations necessary for a 50 % inhibition of enzyme activity (IC50 values), have been determined for the following examples according to the invention:
Cyclooxygenase (microsomes)

lipoxygenase = biological target: T2, lipoxygenase (Glycine max, UniProt P08170); experiment: Lipoxygenase (enzyme) inhibition in vitro; assay type: biochemical
T2 construct: purchased Sigma, Deisenhofen, Germany L7127
T2 sequence (P08170 1-839): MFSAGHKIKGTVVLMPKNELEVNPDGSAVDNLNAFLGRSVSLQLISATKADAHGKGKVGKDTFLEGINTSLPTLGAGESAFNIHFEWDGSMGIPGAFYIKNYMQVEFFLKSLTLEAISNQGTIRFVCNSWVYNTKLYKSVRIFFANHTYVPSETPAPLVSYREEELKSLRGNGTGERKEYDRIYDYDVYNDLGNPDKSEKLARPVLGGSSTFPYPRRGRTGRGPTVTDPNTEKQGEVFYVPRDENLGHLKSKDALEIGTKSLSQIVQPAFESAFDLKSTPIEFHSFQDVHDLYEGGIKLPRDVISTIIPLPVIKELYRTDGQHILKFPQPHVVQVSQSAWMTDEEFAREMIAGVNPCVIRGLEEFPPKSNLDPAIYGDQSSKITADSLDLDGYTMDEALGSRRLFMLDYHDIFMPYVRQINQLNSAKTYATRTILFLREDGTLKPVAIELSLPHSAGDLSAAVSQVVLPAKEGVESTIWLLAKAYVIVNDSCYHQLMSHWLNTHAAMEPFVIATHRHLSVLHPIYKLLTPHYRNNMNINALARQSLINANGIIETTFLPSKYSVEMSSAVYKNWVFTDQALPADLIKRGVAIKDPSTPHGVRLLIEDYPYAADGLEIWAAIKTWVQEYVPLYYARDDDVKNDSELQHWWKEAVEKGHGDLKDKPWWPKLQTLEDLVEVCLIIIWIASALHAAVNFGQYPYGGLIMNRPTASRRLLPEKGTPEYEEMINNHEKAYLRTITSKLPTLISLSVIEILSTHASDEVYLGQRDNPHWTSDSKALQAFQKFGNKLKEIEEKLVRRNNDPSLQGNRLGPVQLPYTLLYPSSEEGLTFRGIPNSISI
Procedure: as §4
The inhibitor actions, or the inhibitor concentrations necessary for a 50 % inhibition of enzyme activity (IC50 values), have been determined for the following examples according to the invention: […]

[8] = system: Arthus reaction (paw volume increase) in rats; experiment: Reverse passive Arthus reaction; assay type: in vivo, rat (male Sprague-Dawley)
Procedure: b) Reverse passive Arthus reaction
Male Sprague-Dawley rats having a body weight between 100 and 120 g. which had been divided into groups of 8 animals in each case, were used as experimental animals. The animals received a subplantar injection in the left hind paw of 0.5 mg of immunoglobulin in 0.1 ml of a sodium chloride solution 1 hour after oral administration of the test substance. After 4 hours, the Arthus reaction was measured, the percentage change in the paw volume increase compared to that of the control group treated only with vehicle being used as a measuring parameter for the action.

[9] = system: Adjuvant arthritis (Perper modification; paw volume) in rats; experiment: Adjuvant arthritis (Perper modification), paw volume on the 21st day; assay type: in vivo, rat (male, Wistar-Lewis strain); settings: Rattus norvegicus, po, 504 h, 50 mg/kg/day, 1st to 12th day
Procedure: as §2, §3
a) Adjuvant arthritis (Perper modification)
The animals were only treated from the 1st to the 12th experimental day in the experimental arrangement described in item 1. After a treatment-free interval of 9 days, determination of the paw volume of the left and right hind paw was carried out on the 21st day (compare Table 3).

[10] = read-out: % inhibition on the 21st day, Left paw
[11] = read-out: % inhibition on the 21st day, Right paw

`CC(C)(C)c1cc(-c2csc(CCC(=O)O)n2)cc(C(C)(C)C)c1O` [Example 3, 3-[4-(3,5-Di-tert.-butyl-4-hydroxyphenyl)thiazol-2-yl]propionic acid] showed a reaction order n [1] of less than 1, an activity at 1 µM ([2]; 1 μM) of 113 ± 49% and an activity at 10 µM ([2]; 10 μM) of 94 ± 17%. For the same compound, the activity at 100 µM ([2]; 100 μM) was 28 ± 10%, the inhibition in vivo at 2.5 mg/kg [3, 10] was 65% and the inhibition in vivo at 2.5 mg/kg [3, 11] was 59%. It also gave an inhibition in vivo at 5 mg/kg [3, 10] of 41%, an inhibition in vivo at 5 mg/kg [3, 11] of 74% and an activity at 1 µM ([4]; 1 μM) of 94 ± 12%. It also gave an activity at 10 µM ([4]; 10 μM) of 102 ± 9%, an activity at 100 µM ([4]; 100 μM) of 78 ± 14% and an ED50 [5] of 0.9 mg/kg. It also gave an inhibition in vivo at 50 mg/kg [5] of 84%.
For `CC(C)(C)c1cc(-c2csc(CCC(=O)NO)n2)cc(C(C)(C)C)c1O` [Example 7, 3-[4-(3 .-butyl-4-hydroxyphenyl)thiazol-2-yl]propionylhydroxamic acid], the activity at 0.1 µM ([6]; 0.1 μM, n = 6, read-out: 5-HETE formation, Residual activity (%)) was 89.2 ± 12.1%, the activity at 1 µM ([6]; 1 μM, n = 6, read-out: 5-HETE formation, Residual activity (%)) was 87 ± 15.6% and the activity at 10 µM ([6]; 10 μM, n = 6, read-out: 5-HETE formation, Residual activity (%)) was 39 ± 12.8%. For the same compound, the activity at 100 µM ([6]; 100 μM, n = 9, read-out: 5-HETE formation, Residual activity (%)) was 1.7 ± 0.4%, the reaction order n [1] was 1 and the activity at 0.1 µM ([7]; 0.1 μM, n = 6, read-out: LTB4 formation, Residual activity (%)) was 91 ± 13.2%. For the same compound, the activity at 1 µM ([7]; 1 μM, n = 6, read-out: LTB4 formation, Residual activity (%)) was 74.3 ± 21.5%, the activity at 10 µM ([7]; 10 μM, n = 6, read-out: LTB4 formation, Residual activity (%)) was 35 ± 17% and the activity at 100 µM ([7]; 100 μM, n = 9, read-out: LTB4 formation, Residual activity (%)) was 1.7 ± 1.3%. For the same compound, the inhibition at 100 µM (cyclooxygenase) was 75%, the ED50 [5] was 2.4 mg/kg and the inhibition in vivo at 50 mg/kg [5] was 83%.
For `CCOC(=O)Cc1nc(-c2cc(C(C)(C)C)c(O)c(C(C)(C)C)c2)cs1` [Example 8], the IC50 (lipoxygenase; Lipoxygenase (enzyme)) was 50 µM, the reaction order n [1] was 1 and the “% inhibition (Arthus reaction)” value ([8]; 60 mg/kg orally) was 38%. For the same compound, the inhibition at 100 µM (cyclooxygenase) was 75%.
For `Cc1sc(CCC(=O)O)nc1-c1cc(C(C)(C)C)c(O)c(C(C)(C)C)c1` [Example 15], the inhibition at 100 µM (lipoxygenase; at 100 μM) was 78%, the reaction order n [1] was less than 1 and the “% inhibition (Arthus reaction)” value ([8]; 100 mg/kg orally) was 47%. The inhibition in vivo at 50 mg/kg [9, 10] was 39%, the inhibition in vivo at 50 mg/kg [9, 11] was 50% and the ED50 [5] was 2.6 mg/kg. For the same compound, the inhibition in vivo at 50 mg/kg [5] was 67%.
`CCOC(=O)CCc1nc(-c2cc(C)c(O)c(C(C)(C)C)c2)cs1` [Example 16] showed a reaction order n [1] of less than 1 and an IC50 (cyclooxygenase) of 34 µM.
